US20070166712A1, “Cyp2s1 as target for diagnosis and therapy of skin diseases” (UNIVERSITY COURT OF THE UNIVERSITY OF DUNDEE, priority 2003, published 2007)

Assays:
CYP2S1 mRNA expression = CYP2S1 mRNA expression in skin after topical chemicals (Taqman quantitative real-time RT-PCR); assay type: in vivo, human; conditions: healthy volunteers, occluded 96 hours on buttock skin, vs control skin
CYP3A5 = test: Cutaneous expression and regulation by ATRA of additional CYP450s; assay type: in vivo
CYP2S1 = biological target: T1, CYP2S1 (Homo sapiens, UniProt Q96SQ9); test: atRA metabolism by heterologously expressed CYP2S1 (E. coli membranes co-expressing CYP2S1 and CPR, HPLC); assay type: in vitro ADME; conditions: NADPH regenerating system
T1 construct: made in house; host or cells: E. coli (membrane fraction)
T1 sequence (Q96SQ9 1-504): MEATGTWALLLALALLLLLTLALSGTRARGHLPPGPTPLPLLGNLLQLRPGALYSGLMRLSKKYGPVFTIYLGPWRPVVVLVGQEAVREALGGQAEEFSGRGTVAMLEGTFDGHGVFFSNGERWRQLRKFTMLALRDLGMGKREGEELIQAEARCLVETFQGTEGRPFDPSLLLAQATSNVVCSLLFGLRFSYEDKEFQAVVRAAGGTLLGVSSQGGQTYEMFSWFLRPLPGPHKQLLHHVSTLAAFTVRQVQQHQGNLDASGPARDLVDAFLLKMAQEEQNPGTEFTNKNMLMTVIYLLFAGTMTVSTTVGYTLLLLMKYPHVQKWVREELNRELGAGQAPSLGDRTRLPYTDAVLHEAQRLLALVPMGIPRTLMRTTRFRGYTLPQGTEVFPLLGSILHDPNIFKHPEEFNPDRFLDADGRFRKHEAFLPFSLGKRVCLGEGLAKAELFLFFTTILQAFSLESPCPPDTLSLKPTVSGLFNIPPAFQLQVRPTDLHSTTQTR
Description: (§1) E. Coli membranes co-expressing CYP2S1 and CPR were incubated with atRA as previously described^17. CYP2S1-derived atRA metabolites (FIG. 4A) were separated by HPLC and identified by comparison with the elution profile of human liver microsomes (FIG. 4B). Control incubations were performed in the absence of the NADPH regenerating system (FIG. 4C).
(§2) The CYP2S1 cDNA, a generous gift from Professor Oliver Hankinson, Department of Pathology and Laboratory Medicine, Jonsson Comprehensive Cancer Centre and Molecular Biology Institute, UCLA, Los Angeles was constructed and co-expressed with CPR in E. Coli as previously described^16. CYP2S1 metabolism of atRA was performed using HPLC analysis as previously described^17, using E. coli membranes co-expressing CYP2S1 and CPR and an NADPH regenerating system. Control reactions were performed in the absence of CYP2S1 and in the absence of the NADPH regenerating system. CYP2S1 metabolites were identified by comparison with elution times and UV profiles of atRA metabolites generated by human liver microsomes which had previously been identified using authentic standards.

CYP1A1 mRNA expression = CYP1A1 mRNA expression in skin of volunteer panel after topical chemicals; assay type: in vivo, human; conditions: topical application, data not shown
human liver microsomes = test: atRA metabolism by human liver microsomes (HPLC); assay type: in vitro ADME; conditions: confirmed with authentic standard
Description: as §1, §2

## CC1=C(/C=C/C(C)=C/C=C/C(C)=C/C(=O)O)C(C)(C)CCC1 [atRA, all-trans retinoic acid]
CYP2S1 mRNA expression
  individuals showing marked CYP2S1 induction (mRNA): 6/14
CYP3A5
  inducibility of CYP3A5 in human skin: not inducible
CYP2S1
  atRA metabolites produced by CYP2S1: 4-OH-RA and 5,6-epoxy RA
  formation of 4-oxo RA metabolite by CYP2S1: did not appear to produce
CYP1A1 mRNA expression
  effect on CYP1A1 mRNA expression: suppressed
Human liver microsomes
  formation of 4-oxo RA metabolite by human liver microsomes: produced by human liver microsomes
